Laboratory results reported in patent publication US5691366A, “Nitro compounds, process for preparation thereof and use thereof” (Fujisawa Pharmaceutical Co., Ltd., priority 1991, dated 1997).

Tests used:
[1] = system: Mean Arterial Blood Pressure in Conscious Rats; assay: Effect on mean arterial blood pressure in conscious rats (oral); type: in vivo, rat (male Sprague-Dawley); conditions: for Hypotensive effect Dur.: time to recover to 5% of maximal decrease; for Hypotensive effect T 1/2: time to recover to half of maximal decrease; for inhibition in vivo at 10 mg/kg / inhibition in vivo at 32 mg/kg: Rattus norvegicus, po, maximal % decrease of mean blood pressure, read-out: Hypotensive effect R max
Procedure: Male Sprague-Dawley rats, aged 9-11 weeks, were anesthetized with ether and a polyethylene cannula filled with heparin solution was inserted into the femoral artery of the rats to measure mean blood pressure. Mean blood pressure was measured with a pressure transducer and recorded on a polygraph. Two hours after operation, the drug suspended in 0.5% methyl cellulose was administered orally in a volume of 5 ml/kg. Oral hypotensive effects of each compound were expressed as the maximal decrease (R max), the half time (T 1/2) and the duration (Dur.). Briefly, R max was expressed as maximal % change compared to mean blood pressure prior to the administration of compound. T 1/2 was expressed as a time during which the hypotensive effect recovered to half of the maximal decrease. Duration was expressed as a time during which the hypotensive effect recovered to 5% of the maximal decrease.

[2] = system: Mean Arterial Blood Pressure in Anesthetized Rats; assay: Effect on mean arterial blood pressure in anesthetized rats (intravenous); type: in vivo, rat (male Sprague-Dawley); conditions: for Hypotensive effect T 1/2: i.v., time to recover to half of maximal decrease
Procedure: Male Sprague-Dawley rats, aged 9-12 weeks, were anesthetized with urethane (1.4 g/kg i.p.). A polyethylene cannula filled with heparin solution was inserted into the femoral artery of the rats to measure mean blood pressure. Mean blood pressure was measured with a pressure transducer and recorded on a polygraph. The test compound dissolved in ethanol, polyethylene glycol and distilled water (1:1:2), were administered intraveneously in a volume of 0.25 ml/kg. Intravenous hypothypotensive effects of each compound were expressed as the maximal decrease (R max) and the half time (T 1/2). Briefly, R max was expressed as maximal % change compared to mean blood pressure prior to the administration of compound. T 1/2 was expressed as a time during which the hypotensive effect recovered to half of the maximal decrease.

[3] = Rattus norvegicus, iv, 0.32 mg/kg, maximal % decrease of mean blood pressure, read-out: Hypotensive effect R max
[4] = Rattus norvegicus, iv, 1.0 mg/kg, maximal % decrease of mean blood pressure, read-out: Hypotensive effect R max

Row | SMILES | Hypotensive effect Dur. ([1]; 10 mg/kg) | Hypotensive effect T 1/2 ([1]; 10 mg/kg) | Hypotensive effect Dur. ([1]; 32 mg/kg) | Hypotensive effect T 1/2 ([1]; 32 mg/kg) | inhibition in vivo at 10 mg/kg ([1]; 10 mg/kg) | inhibition in vivo at 32 mg/kg ([1]; 32 mg/kg) | inhibition in vivo at 0.32 mg/kg [2, 3] | inhibition in vivo at 1 mg/kg [2, 4] | Hypotensive effect T 1/2 ([2]; 1.0 mg/kg) | Hypotensive effect T 1/2 ([2]; 0.32 mg/kg) | inhibition in vivo at 3.2 mg/kg ([2]; Rattus norvegicus, iv, 3.2 mg/kg, maximal % decrease of mean blood pressure, read-out: Hypotensive effect R max) | Hypotensive effect T 1/2 ([2]; 3.2 mg/kg)
1 | CCC(C(C)=CC(CNC(=O)c1cccnc1)=NO)[N+](=O)[O-] (single isomer, unassigned) [Example 18 A, N-(2-hydroxyimino-4-methyl-5-nitro-3-hepten-1-yl)-3-pyridinecarboxamide] | 57.0 min | 40.1 min | 156.4 min | 88.7 min | 25.7% | 46.9% | 10.2% | 33.6% | 31.5 min | – | – | –
2 | CCC(C(C)=CC(CNC(=O)c1cccnc1)=NO)[N+](=O)[O-] (single isomer, unassigned) [Example 18 B, N-(2-hydroxyimino-4-methyl-5-nitro-3-hepten-1-yl)-3-pyridinecarboxamide] | 54.7 min | 26.4 min | 97.2 min | 56.1 min | – | – | – | – | 20.2 min | – | – | –
3 | CC(=CC(CNC(=O)c1cccnc1)=NO)C(C)[N+](=O)[O-] (single isomer, unassigned) [Example 19 A, N-(2-Hydroxyimino-4-methyl-5-nitro-3-hexen-1-yl)-3-pyridinecarboxamide] | – | – | – | – | – | – | 40.3% | – | – | 12.6 min | – | –
4 | CC(=CC(CNC(=O)c1cccnc1)=NO)C(C)[N+](=O)[O-] (single isomer, unassigned) [Example 19 B, N-(2-Hydroxyimino-4-methyl-5-nitro-3-hexen-1-yl)-3-pyridinecarboxamide] | – | – | – | – | – | – | – | – | – | 11.0 min | – | –
5 | CCC(=CC(CNC(=O)c1cccnc1)=NO)C(CC)[N+](=O)[O-] (single isomer, unassigned) [Example 25 A, N-(4-Ethyl-2-hydroxyimino-5-nitro-3-hepten-1-yl)-3-pyridinecarboxamide] | – | 22.5 min | – | 56.7 min | – | 26% | 24.1% | – | – | 13.1 min | – | –
6 | CCC(=CC(CNC(=O)c1cccnc1)=NO)C(CC)[N+](=O)[O-] (single isomer, unassigned) [Example 25 B, N-(4-Ethyl-2-hydroxyimino-5-nitro-3-hepten-1-yl)-3-pyridinecarboxamide] | – | 14.6 min | – | – | – | – | – | – | – | – | – | –
7 | CCC(=CC(CNC(=O)c1cccnc1C)=NO)C(C)[N+](=O)[O-] (single isomer, unassigned) [Example 30 A, N-(4-Ethyl-2-hydroxyimino-5-nitro-3-hexen-1-yl)-2-methyl-3-pyridinecarboxamide] | 108.0 min | 36.0 min | 211.1 min | 56.2 min | 40.6% | 39.3% | 37.9% | – | – | 16.9 min | – | –
8 | CCC(=CC(CNC(=O)c1cccnc1C)=NO)C(C)[N+](=O)[O-] (single isomer, unassigned) [Example 30 B, N-(4-Ethyl-2-hydroxyimino-5-nitro-3-hexen-1-yl)-2-methyl-3-pyridinecarboxamide] | – | 20.9 min | – | – | – | – | – | – | – | 13.0 min | – | –
9 | CCC(=CC(CNC(=O)c1cccnc1SC)=NO)C(C)[N+](=O)[O-] (single isomer, unassigned) [Example 31 A, N-(4-Ethyl-2-hydroxyimino-5-nitro-3-hexen-1-yl)-2-methylthio-3-pyridinecarboxamide] | – | 10.4 min | – | – | 14.9% | – | 24.3% | – | – | – | – | –
10 | CCC(=CC(CNC(=O)c1cccnc1O)=NO)C(C)[N+](=O)[O-] (single isomer, unassigned) [Example 33 A, N-(4-Ethyl-2-hydroxyimino-5-nitro-3-hexen-1-yl)-2-hydroxy-3-pyridinecarboxamide] | – | 18.3 min | – | – | 23.1% | – | 20.9% | – | – | 11.9 min | – | –
11 | CCC(=CC(CNC(=O)c1nc[nH]c1C)=NO)C(C)[N+](=O)[O-] (single isomer, unassigned) [Example 45 A, N-(4-Ethyl-2-hydroxyimino-5-nitro-3-hexen-1-yl)-5-methy-4-imidazolecarboxamide] | 52.3 min | 26.6 min | – | – | 35.4% | – | 31.2% | – | – | 11.9 min | – | –
12 | CC(C)C(=CC(CNC(=O)c1cccnc1)=NO)C(C)[N+](=O)[O-] (stereo not drawn) [Example 20, N-(2-Hydroxyimino-4-isopropyl-5-nitro-3-hexen-1-yl)-3-pyridinecarboxamide] | – | 28.5 min | – | – | 20.1% | – | 3.8% | – | – | – | 48.4% | 20.1 min
13 | O=C(NCC(C=C1CCCCC1[N+](=O)[O-])=NO)c1cccnc1 (stereo not drawn) [Example 21, N-[2-Hydroxyimino-3-(2-nitrocyclohexylidene)propyl]-3-pyridinecarboxamide] | 67.7 min | 34.1 min | > 300 min | 88.1 min | 34.3% | 34.3% | 26.5% | – | – | 13.1 min | – | –
14 | COCC(C(C)=CC(CNC(=O)c1ccncc1)=NO)[N+](=O)[O-] (stereo not drawn) [Example 22, N-(2-Hydroxyimino-6-methoxy-4-methyl-5-nitro-3-hexen-1-yl)-4-pyridinecarboxamide] | – | 29.9 min | – | 63.2 min | 19.2% | 25.7% | 17.7% | 35.9% | 24.9 min | – | – | –
15 | CCC(=CC(CNC(C)=O)=NO)C(CC)[N+](=O)[O-] (stereo not drawn) [Example 24, 1Acetylamino-4-ethyl-2-hydroxyimino-5-nitro-3-heptene] | – | 16.6 min | – | – | 40.7% | – | 31.8% | – | – | 13.6 min | – | –
16 | CCC(=CC(CNC(=O)c1cnccc1C(N)=O)=NO)C(C)[N+](=O)[O-] (stereo not drawn) [Example 28, 3-[N-(4-Ethyl-2-hydroxyimino-5-nitro-3-hexen-1-yl)-carbamoyl]-4-pyridinecarboxamide] | – | – | – | – | – | – | 22.2% | 31.4% | 11.9 min | – | – | –
17 | CCC(=CC(CNC(=O)c1ccncc1)=NO)C(C)[N+](=O)[O-] (stereo not drawn) [Example 29, N-(4-Ethyl-2-hydroxyimino-5-nitro-3-hexen-1-yl)-4-pyridinecarboxamide] | 72.5 min | 23.5 min | > 300 min | 165 min | 31.4% | 37.1% | 35% | – | – | 12.3 min | – | –
18 | CCC(=CC(CNC(=O)c1cccnc1Cl)=NO)C(C)[N+](=O)[O-] (stereo not drawn) [Example 32, N-(4-Ethyl-2-hydroxyimino-5-nitro-3-hexen-1-yl)-2-chloro-3-pyridinecarboxamide] | 50.9 min | 19.6 min | – | – | 43.2% | – | 42.5% | – | – | 13.6 min | – | –
19 | CCC(=CC(CNC(=O)C(N)=O)=NO)C(C)[N+](=O)[O-] (stereo not drawn) [Example 40 A] | 71.1 min | 25.2 min | – | – | 47.8% | – | – | – | – | – | – | –
20 | CCC(=CC(CNC(=O)C(N)=O)=NO)C(C)[N+](=O)[O-] (stereo not drawn) [Example 40] | – | – | – | – | – | – | 52.3% | – | – | 11.3 min | – | –
21 | CCC(=CC(CNC(=O)Cc1cccnc1)=NO)C(C)[N+](=O)[O-] (stereo not drawn) [Example 42, N-(4-Ethyl-2-hydroxyimino-5-nitro-3-hexen-1-yl)-3-pyridylacetamide] | – | – | – | – | – | – | 44.4% | – | – | 14.2 min | – | –
22 | CCC(=CC(CNC(=O)c1sc(C)nc1C)=NO)C(C)[N+](=O)[O-] (stereo not drawn) [Example 43, N-(4-Ethyl-2-hydroxyimino-5-nitro-3-hexen-1-yl)-2,4-dimethylthiazole-5-carboxamide] | – | – | – | – | – | – | 53.1% | – | – | – | – | –
